Our source for the Ki values is patent US20240150293A1, “SPIROCYCLOHEXANE DERIVATIVES, PHARMACEUTICAL COMPOSITIONS CONTAINING THEM AND THEIR USES AS ANTI-APOPTOTIC INHIBITORS” (LES LABORATOIRES SERVIER, priority 2021, published 2024).

What is called Ki is a measure of affinity in units of concentration, obtained from inhibition or displacement.

Structures are written as SMILES.

Mcl-1 protein, sequence (Q07820 whole entry): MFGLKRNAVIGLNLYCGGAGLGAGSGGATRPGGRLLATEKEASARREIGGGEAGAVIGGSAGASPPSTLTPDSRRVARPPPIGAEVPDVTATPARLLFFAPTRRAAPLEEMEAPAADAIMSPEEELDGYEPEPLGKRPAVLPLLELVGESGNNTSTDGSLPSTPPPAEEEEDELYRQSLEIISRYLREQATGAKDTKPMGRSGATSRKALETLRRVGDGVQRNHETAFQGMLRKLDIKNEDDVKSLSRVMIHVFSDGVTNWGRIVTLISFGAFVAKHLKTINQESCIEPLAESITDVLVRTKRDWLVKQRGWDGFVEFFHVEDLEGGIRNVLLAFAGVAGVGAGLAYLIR

The target in this experiment is Mcl-1 protein (UniProtKB Q07820) (Homo sapiens (Human), UniProt Q07820). Description: Inhibition of Mcl-1 by the fluorescence polarisation assay (Example A, Method A). Format: binding. The conditions noted are these: fluorescence polarization assay. As to the method:
The relative binding potency of each compound was determined via Fluorescence Polarisation (FP). The method utilised a Fluorescein labelled ligand (Fluorescein-βAla-Ahx-A-REIGAQLRRMADDLNAQY-OH; MW 2,765) which binds to the Mcl-1 protein (such that Mcl-1 corresponds to the UniProtKB® primary accession number: Q07820) leading to an increased anisotropy measured in milli-polarisation (mP) units using a reader. The addition of a compound which binds competitively to the same site as the ligand will result in a greater proportion of unbound ligand in the system indicated by a decrease in mP units.
An 11 point serial dilution of each compound was prepared in DMSO and 2 μl transferred into flat bottomed, low binding, 384-well plate (final DMSO concentration 5%). 38 μl of buffer containing the Fluorescein labelled ligand (final concentration 1 nM) and Mcl-1 protein (final concentration 5 nM) was then added. Buffer components were 10 mM 4-(2-hydroxyethyl)-1-piperazineethanesulfonic acid [HEPES], 150 mM NaCl, pH 7.4 with the addition of 0.05% Tween 20.
Assay plates were incubated for 2 hours at room temperature before FP was measured on a […] Synergy Neo reader ([…], Cut off 510 nm) and mP units calculated. The binding of increasing doses of test compound was expressed as a percentage reduction in mP compared to a window established between ‘5% DMSO only’ and ‘100% inhibition’ controls. 11-point dose response curves were plotted with XL-Fit software using a 4-Parameter Logistic Model (Sigmoidal Dose-Response Model) and the inhibitory concentrations that gave a 50% reduction in mP (IC50) were determined. The Ki values were determined from the IC50 values according to Cer et al, Nucleic Acids Res, 2009, 37 (WebServer issue): W441-W445. Inhibition constants (Ki) are determined from complete binding inhibition curves (cKi) or from estimated from incomplete binding inhibition curves (eKi) in most cases due to low activity.
For orientation: In fluorescence polarisation assays a small probe gives low polarisation when free and higher when bound to something large.
As for `O=C(O)[C@]1(Nc2cccc(Br)c2)CC[C@]2(CC1)c1ccccc1CC2CCc1ccccn1` (mixture of isomers) [Example 176, (1s,4s)-4-(3-bromoanilino)-2′-[2-(pyridin-2-yl)ethyl]-2′,3′-dihydrospiro[cyclohexane-1,1′-indene]-4-carboxylic acid], the Ki stood at 11.8 µM.
Turning to `O=C(O)C1(Nc2cccc(Br)c2)CCC2(CC1)c1ccccc1CC2CCc1ccccc1` (racemic) [Example 201, 4-(3-bromoanilino)-2′-(2-phenylethyl)-2′,3′-dihydrospiro[cyclohexane-1,1′-indene]-4-carboxylic acid], the Ki was 1.53 µM.
The figure for `CC[C@H]1c2ccccc2[C@]2(CC[C@@](Nc3cccc(Cl)c3)(C(=O)O)CC2)[C@H]1C` (racemic) [Example 207, (1r,2′RS,3′SR,4r)-4-(3-chloroanilino)-3′-ethyl-2′-methyl-2′,3′-dihydrospiro[cyclohexane-1,1′-indene]-4-carboxylic acid] is 4.66 µM; for `COc1cccc(Cl)c1C1Cc2ccccc2[C@]12CC[C@@](Nc1cccc(Cl)c1)(C(=O)O)CC2` (mixture of isomers) [Example 283, (1r,4r)-4-(3-chloroanilino)-2′-(2-chloro-6-methoxyphenyl)-2′,3′-dihydrospiro[cyclohexane-1,1′-indene]-4-carboxylic acid] it is 4.16 µM; for `COc1cccc(C)c1C1Cc2ccccc2[C@]12CC[C@@](Nc1cccc(Cl)c1)(C(=O)O)CC2` (mixture of isomers) [Example 286, (1r,4r)-4-(3-chloroanilino)-2′-(2-methoxy-6-methylphenyl)-2′,3′-dihydrospiro[cyclohexane-1,1′-indene]-4-carboxylic acid] it is 5.8 µM.
The figure for `Cc1n[nH]c2cccc(OCCCC3Cc4ccccc4[C@]34CC[C@@](Nc3cccc(Cl)c3)(C(=O)O)CC4)c12` (mixture of isomers) [Example 453, (1r,4r)-4-(3-chloroanilino)-2′-{3-[(3-methyl-1H-indazol-4-yl)oxy]propyl}-2′,3′-dihydrospiro[cyclohexane-1,1′-indene]-4-carboxylic acid] is 0.318 µM; for `CC(C)c1cncnc1OCCCC1Cc2ccccc2[C@]12CC[C@@](Nc1cccc(Cl)c1)(C(=O)O)CC2` (mixture of isomers) [Example 461, (1r,4r)-4-(3-chloroanilino)-2′-(3-{[5-(propan-2-yl)pyrimidin-4-yl]oxy}propyl)-2′,3′-dihydrospiro[cyclohexane-1,1′-indene]-4-carboxylic acid] it is 0.325 µM; for `O=C(O)[C@]1(Nc2cccc(Cl)c2)CC[C@@]2(CC1)c1ccccc1CC2[C@H]1C[C@@H]1COc1ccccc1` (relative stereo) [Example 109, (1r,4r)-4-(3-chloroanilino)-2′-[(1R*,2S*)-2-(phenoxymethyl)cyclopropyl]-2′,3′-dihydrospiro[cyclohexane-1,1′-indene]-4-carboxylic acid] it is 0.745 µM.
In the case of `O=C(O)[C@]1(Nc2cccc(Cl)c2)CC[C@@]2(CC1)c1ccccc1CC2[C@H]1C[C@@H]1COc1ccccc1` (relative stereo) [Example 110, (1r,4r)-4-(3-chloroanilino)-2′-[(1R*,2S*)-2-(phenoxymethyl)cyclopropyl]-2′,3′-dihydrospiro[cyclohexane-1,1′-indene]-4-carboxylic acid] it was 8.45 µM; in that of `O=C(O)[C@]1(Nc2cccc(Cl)c2)CC[C@@]2(CC1)c1ccccc1CC2[C@H]1C[C@@H]1COc1ccccc1` (relative stereo) [Example 111, (1r,4r)-4-(3-chloroanilino)-2′-[(1R*,2S*)-2-(phenoxymethyl)cyclopropyl]-2′,3′-dihydrospiro[cyclohexane-1,1′-indene]-4-carboxylic acid], 9.68 µM.
Turning to `O=C(O)C1(Nc2cccc(Br)c2)CCC2(CC1)C(=O)N1CCCc3cc(Br)cc2c31` (single isomer, unassigned) [Example 14, 8′-bromo-4-(3-bromoanilino)-2′-oxo-5′,6′-dihydro-2′H,4′H-spiro[cyclohexane-1,1′-pyrrolo[3,2,1-ij]quinoline]-4-carboxylic acid], the Ki was 5.2 µM.
`CN1c2ccccc2C2(CCC(Nc3cccc(Br)c3)(C(=O)O)CC2)C1CCc1ccccc1` (single isomer, unassigned) [Example 25, 4-(3-bromoanilino)-1′-methyl-2′-(2-phenylethyl)-1′,2′-dihydrospiro[cyclohexane-1,3′-indole]-4-carboxylic acid]: the Ki is 0.887 µM.
Take `Cc1ccc(S(=O)(=O)N2Cc3ccccc3C23CCC(Nc2cccc(Cl)c2)(C(=O)O)CC3)cc1` (single isomer, unassigned) [Example 28, 4-(3-chloroanilino)-2′-(4-methylbenzene-1-sulfonyl)-2′,3′-dihydrospiro[cyclohexane-1,1′-isoindole]-4-carboxylic acid]: the Ki is 14.8 µM.
In the case of `Cc1ccc(S(=O)(=O)N2Cc3ccccc3C23CCC(Nc2cccc(Cl)c2)(C(=O)O)CC3)cc1` (single isomer, unassigned) [Example 29, 4-(3-chloroanilino)-2′-(4-methylbenzene-1-sulfonyl)-2′,3′-dihydrospiro[cyclohexane-1,1′-isoindole]-4-carboxylic acid] it was 15.8 µM.
In the case of `O=C(O)C1(Nc2cccc(Br)c2)CCC2(C=Cc3ccccc32)CC1` (single isomer, unassigned) [Example 58, 4-(3-bromoanilino)spiro[cyclohexane-1,1′-indene]-4-carboxylic acid], the Ki was found to be 0.696 µM.
The figure for `O=C(O)C1(Nc2cccc(Br)c2)CCC2(C=Cc3cccc(Br)c32)CC1` (single isomer, unassigned) [Example 59, 7′-bromo-4-(3-bromoanilino)spiro[cyclohexane-1,1′-indene]-4-carboxylic acid] is 4.21 µM.
The figure for `O=C(O)C1(Nc2cccc(Cl)c2)CCC2(C=Cc3cccnc32)CC1` (single isomer, unassigned) [Example 71, 4-(3-chloroanilino)spiro[cyclohexane-1,7′-cyclopenta[b]pyridine]-4-carboxylic acid] is 0.984 µM.
Take `O=C(O)C1(Nc2cccc(Cl)c2)CCC2(C=Cc3cccnc32)CC1` (single isomer, unassigned) [Example 72, 4-(3-chloroanilino)spiro[cyclohexane-1,7′-cyclopenta[b]pyridine]-4-carboxylic acid]: the Ki is 191 µM.
As for `O=C(O)[C@]1(Nc2cccc(Cl)c2)CC[C@@]2(CC1)c1ccccc1CC2C1CCCC1` (single isomer, unassigned) [Example 91, (1r,4r)-4-(3-chloroanilino)-2′-cyclopentyl-2′,3′-dihydrospiro[cyclohexane-1,1′-indene]-4-carboxylic acid], the Ki is 1.43 µM.
The figure for `O=C(O)[C@]1(Nc2cccc(Cl)c2)CC[C@@]2(CC1)c1ccccc1CC2C1CCCC1` (single isomer, unassigned) [Example 92, (1r,4r)-4-(3-chloroanilino)-2′-cyclopentyl-2′,3′-dihydrospiro[cyclohexane-1,1′-indene]-4-carboxylic acid] is 7.37 µM.
On to `O=C(O)[C@]1(Nc2cccc(Cl)c2)CC[C@@]2(CC1)c1ccccc1CC2[C@H]1C[C@@H]1COc1ccnc2ccsc12` (single isomer, unassigned) [Example 103, (1r,4r)-4-(3-chloroanilino)-2′-[(1R*,2S*)-2-{[(thieno[3,2-b]pyridin-7-yl)oxy]methyl}cyclopropyl]-2′,3′-dihydrospiro[cyclohexane-1,1′-indene]-4-carboxylic acid], for which the Ki is 0.214 µM.
